{"source": "patent US20100021895A1", "about": "“Vectors for Inducing Homozygous Mutations and Methods of Using Same” (priority 2006, published 2010)", "test_system": "mouse embryonic stem cell clones, each containing a neomycin resistance gene (Neo) inserted by the GTR1.3 gene trap retrovirus", "assay": "Carcinogen-induced LOH: frequency of colony formation in 2.0 mg/ml G418", "assay_type": "cell-based", "conditions": "for fold increase of frequency of colony formation: 2 mg/ml G418 0.25 mM HU", "protocol": "Carcinogen-induced LOH was measured in a panel of 53 mouse embryonic stem cell clones, each containing a neomycin resistance gene (Neo) inserted into a different cellular gene (FIG. 9) by the GTR1.3 gene trap retrovirus. Gene entrapment by GTR1.3 involves selection for inserted Neo sequences that can splice to the 3′ ends of cellular genes (Lin et al.,). The disrupted genes were identified by sequencing Neo-gene fusion transcripts and were localized on the mouse genome. Previous studies have shown that cells homozygous for GTR1.3-induced mutations can be selected from heterozygous cells simply by selecting for resistance to higher concentrations of G418, a method first shown to select for homozygous mutations induced by gene targeting (15). Mitotic recombination appears to be the preferred mechanism of spontaneous LOH involving Neo genes inserted in ES cells (17) and LOH involving other genes and cell types in vivo (12, 13). LOH doubles the number of Neo genes per cell and thus allows moderately resistant cells to acquire resistance to higher concentrations of G418. The frequencies of spontaneous LOH measured at the 53 different sites ranged from 1.3×10^−5 to 1.2×10^−4 (Table 3), similar to those reported for other inserted neomycin resistance genes (15, 17) in ES cells and for loci such as TK and APRT in other cell types (12, 13).\nA variety of chemical agents were tested for their ability to enhance the frequencies at which mutant cells survive in 2.0 mg/ml G418. Methyl-nitrosurea (MNU) is an alkylating agent that produces a variety of mono-methylated DNA adducts, hydroxyurea (HU) stalls DNA replication complexes, doxorubicin interferes with DNA synthesis, methothrexate is a competitive inhibitor of dihydrofolate reductase but is not genotoxic, diepoxybutane and mitomycin C induce inter-strand DNA crosslinks, UV irradiation causes intra- and inter-strand pyrimidine dimmers, and ethidium bromide intercalates between DNA strands to damage DNA (For additional information about these agents see http://toxnet.nlm.nih.gov and http://lisntweb.swan.ac.uk/cmgt/index.htm). […] The fold-increase for MNU and HU ranged from 39-123 and 18-68, respectively (Table 3). The optimal concentrations of each agent to stimulate colony formation with minimal toxicity (<5% loss of cell viability) were determined in advance (FIG. 13). […] Each of these agents was tested two or more times on at least 25 entrapment lines.\nSerially diluted cells were plated onto 150 mm plates containing drug-free media and allowed to attach overnight. Unattached cells were removed and media containing the indicated concentrations of methyl-nitrosourea, hydroxyurea, ethidium bromide, doxorubicin, methotrexate, diepoxybutane, or mitomycin C was put onto cells for 4 hours (or cells were exposed to ultraviolet light in the absence of media and allowed to recover in drug-free media for 4 hours). Cells were then rinsed twice with drug-free media and selection media containing 0.0, 0.3, or 2.0 mg/ml G418 was put onto cells. After 12 days of selection, the number of colonies surviving was counted and the frequency of colony formation was determined by dividing the number of colonies obtained from 2.0 mg/ml G418 selection to that obtained from parallel experiments with 0.3 mg/ml G418 selection. TK gene loss was assessed following selection in media containing 2 μg/ml gancyclovir.\nTable 3. The frequency of colony formation in high concentrations of G418. The frequency of colony formation is listed for all 53 clones examined. Frequency was determined by dividing the number of colonies surviving 2.0 mg/ml G418 selection to the number surviving parallel experiments with 0.3 mg/ml G418 selection, and is the average of at least 3 independent experiments for each clone. Standard deviations, which ranged from 5 to 70% of the mean values, have been omitted for clarity. […]"}
{"compound": "NC(=O)NO", "note": "[HU, hydroxyurea]", "values": [{"measurement": "fold-increase of colonies surviving in high G418, range over clones", "setting": "0.25 mM HU, Table 3 clones", "result": "18-68 fold"}, {"measurement": "number of colonies surviving in high G418", "setting": "0.5 mM MNU or 0.25 mM HU (FIG. 10)", "result": "dramatically increased"}, {"measurement": "fold increase of frequency of colony formation", "setting": "clone b2p1-a5 (12C3)", "result": "(+35-fold)"}, {"measurement": "fold increase of frequency of colony formation", "setting": "clone b2p1-a9 (2H1)", "result": "(+36-fold)"}, {"measurement": "fold increase of frequency of colony formation", "setting": "clone b2p1-b4 (9E1)", "result": "(+32-fold)"}, {"measurement": "fold increase of frequency of colony formation", "setting": "clone b2p1-b9 (4B1)", "result": "(+38-fold)"}, {"measurement": "fold increase of frequency of colony formation", "setting": "clone b2p1-c6 (19A)", "result": "(+22-fold)"}, {"measurement": "fold increase of frequency of colony formation", "setting": "clone b2p1-d3 (19C1)", "result": "(+28-fold)"}, {"measurement": "fold increase of frequency of colony formation", "setting": "clone b2p1-d8 (4D2.3)", "result": "(+40-fold)"}, {"measurement": "fold increase of frequency of colony formation", "setting": "clone b2p1-d9 (7E3)", "result": "(+38-fold)"}, {"measurement": "fold increase of frequency of colony formation", "setting": "clone b2p1-d10 (9A1)", "result": "(+19-fold)"}, {"measurement": "fold increase of frequency of colony formation", "setting": "clone b2p1-e3 (4D2.3)", "result": "(+32-fold)"}, {"measurement": "fold increase of frequency of colony formation", "setting": "clone b2p1-e10 (19C1)", "result": "(+25-fold)"}, {"measurement": "fold increase of frequency of colony formation", "setting": "clone b2p1-f3 (17E1.3)", "result": "(+47-fold)"}, {"measurement": "fold increase of frequency of colony formation", "setting": "clone b2p1-f10 (3F2.1)", "result": "(+33-fold)"}, {"measurement": "fold increase of frequency of colony formation", "setting": "clone b2p1-f12 (1H5)", "result": "(+25-fold)"}, {"measurement": "fold increase of frequency of colony formation", "setting": "clone b2p1-h1 (7A2)", "result": "(+21-fold)"}, {"measurement": "fold increase of frequency of colony formation", "setting": "clone b2p1-h5 (1H5)", "result": "(+42-fold)"}, {"measurement": "fold increase of frequency of colony formation", "setting": "clone b2p1-h8 (6A3.3)", "result": "(+42-fold)"}, {"measurement": "fold increase of frequency of colony formation", "setting": "clone b3p1-h1 (18E2)", "result": "(+42-fold)"}, {"measurement": "fold increase of frequency of colony formation", "setting": "clone b3p3-a4 (4A5)", "result": "(+33-fold)"}, {"measurement": "fold increase of frequency of colony formation", "setting": "clone b3p3-a9 (4A5)", "result": "(+18-fold)"}, {"measurement": "fold increase of frequency of colony formation", "setting": "clone b3p3-b6 (3F1)", "result": "(+18-fold)"}, {"measurement": "fold increase of frequency of colony formation", "setting": "clone b3p3-c8 (14A3)", "result": "(+32-fold)"}, {"measurement": "fold increase of frequency of colony formation", "setting": "clone b3p3-c12 (5G2)", "result": "(+20-fold)"}, {"measurement": "fold increase of frequency of colony formation", "setting": "clone b3p3-d4 (1C3)", "result": "(+28-fold)"}, {"measurement": "fold increase of frequency of colony formation", "setting": "clone b3p3-d8 (1C2)", "result": "(+68-fold)"}, {"measurement": "fold increase of frequency of colony formation", "setting": "clone b3p3-d9 (4E2)", "result": "(+22-fold)"}, {"measurement": "fold increase of frequency of colony formation", "setting": "clone b3p3-g6 (10C2)", "result": "(+29-fold)"}, {"measurement": "fold increase of frequency of colony formation", "setting": "clone b3p3-g10 (4E1)", "result": "(+24-fold)"}, {"measurement": "fold increase of frequency of colony formation", "setting": "clone b3p3-h2 (19C1)", "result": "(+26-fold)"}, {"measurement": "fold increase of frequency of colony formation", "setting": "clone b3p3-h4 (5E2)", "result": "(+50-fold)"}, {"measurement": "fold increase of frequency of colony formation", "setting": "clone b3p3-h8 (19A)", "result": "(+37-fold)"}, {"measurement": "fold increase of frequency of colony formation", "setting": "clone b3p4-a1 (4A4)", "result": "(+25-fold)"}, {"measurement": "fold increase of frequency of colony formation", "setting": "clone b3p4-a5 (3B)", "result": "(+36-fold)"}, {"measurement": "fold increase of frequency of colony formation", "setting": "clone b3p4-b1 (3A2)", "result": "(+44-fold)"}, {"measurement": "fold increase of frequency of colony formation", "setting": "clone b3p4-b2 (11B1.3)", "result": "(+40-fold)"}, {"measurement": "fold increase of frequency of colony formation", "setting": "clone b3p4-b8 (4C6)", "result": "(+27-fold)"}, {"measurement": "fold increase of frequency of colony formation", "setting": "clone b3p4-b12 (3A1)", "result": "(+24-fold)"}, {"measurement": "fold increase of frequency of colony formation", "setting": "clone b3p4-c1 (17B3)", "result": "(+50-fold)"}, {"measurement": "fold increase of frequency of colony formation", "setting": "clone b3p4-c2 (8C3)", "result": "(+50-fold)"}, {"measurement": "fold increase of frequency of colony formation", "setting": "clone b3p4-c9 (15F2)", "result": "(+20-fold)"}, {"measurement": "fold increase of frequency of colony formation", "setting": "clone b3p4-c12 (17E2)", "result": "(+33-fold)"}, {"measurement": "fold increase of frequency of colony formation", "setting": "clone b3p4-d10 (14E5)", "result": "(+54-fold)"}, {"measurement": "fold increase of frequency of colony formation", "setting": "clone b3p4-d12 (1C3)", "result": "(+51-fold)"}, {"measurement": "fold increase of frequency of colony formation", "setting": "clone b3p4-e1 (2G3)", "result": "(+32-fold)"}, {"measurement": "fold increase of frequency of colony formation", "setting": "clone b3p4-e3 (15D3)", "result": "(+41-fold)"}, {"measurement": "fold increase of frequency of colony formation", "setting": "clone b3p4-e7 (12C1)", "result": "(+44-fold)"}, {"measurement": "fold increase of frequency of colony formation", "setting": "clone b3p4-f2 (4E1)", "result": "(+36-fold)"}, {"measurement": "fold increase of frequency of colony formation", "setting": "clone b3p4-f6 (7E3)", "result": "(+26-fold)"}, {"measurement": "fold increase of frequency of colony formation", "setting": "clone b3p4-f10 (8A4)", "result": "(+36-fold)"}, {"measurement": "fold increase of frequency of colony formation", "setting": "clone b3p4-g3 (1C3)", "result": "(+34-fold)"}, {"measurement": "fold increase of frequency of colony formation", "setting": "clone b3p4-g8 (10C1)", "result": "(+34-fold)"}, {"measurement": "fold increase of frequency of colony formation", "setting": "clone b3p4-g9 (2C2)", "result": "(+32-fold)"}, {"measurement": "fold increase of frequency of colony formation", "setting": "clone b3p4-h11 (8A1.1)", "result": "(+33-fold)"}, {"measurement": "survival of mutant ES cells in media containing 2.0 mg/ml G418", "setting": "ES cells heterozygous for Xrcc5 entrapment mutation, 4 hours with 0.5 mM methyl-nitrosourea, 0.25 mM hydroxyurea or 100 ng/ml diepoxybutane", "result": "enhances the survival"}, {"measurement": "overall extent of LOH induced", "setting": "single exposure to non-toxic levels", "result": "~1 % of the genome"}]}
